Measured values reported in ChEMBL document CHEMBL1201862, “PubChem BioAssay data set” (2004).
The source made the active and inactive calls.

Columns and labels:
[1] = target: FAD-linked sulfhydryl oxidase ALR (Homo sapiens, UniProt P55789); assay: ALR-catalysed DTT oxidation blockers – biochemical, H2O2 detection, luminescence, cherry-pick, dose response (AID 493248)
[2] = target: Glutathione-S-transferase (Schistosoma japonicum, UniProt Q26513); assay: GST-antibody interaction or FRET quenching – biochemical, TR-FRET, artefact control for Vif-APOBEC3G degradation inhibitor project, dose response (AID 1117362); assay type: functional
Chain of Glutathione-S-transferase (Q26513 whole entry): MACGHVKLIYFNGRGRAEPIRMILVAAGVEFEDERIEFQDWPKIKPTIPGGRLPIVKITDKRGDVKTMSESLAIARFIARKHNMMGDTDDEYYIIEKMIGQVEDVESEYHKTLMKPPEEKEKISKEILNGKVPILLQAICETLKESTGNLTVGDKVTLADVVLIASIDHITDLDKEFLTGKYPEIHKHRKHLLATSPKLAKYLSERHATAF

Protein skinhead-1 = target: T1, Protein skinhead-1 (Caenorhabditis elegans, UniProt P34707); assay type: functional
T1 sequence (P34707 whole entry): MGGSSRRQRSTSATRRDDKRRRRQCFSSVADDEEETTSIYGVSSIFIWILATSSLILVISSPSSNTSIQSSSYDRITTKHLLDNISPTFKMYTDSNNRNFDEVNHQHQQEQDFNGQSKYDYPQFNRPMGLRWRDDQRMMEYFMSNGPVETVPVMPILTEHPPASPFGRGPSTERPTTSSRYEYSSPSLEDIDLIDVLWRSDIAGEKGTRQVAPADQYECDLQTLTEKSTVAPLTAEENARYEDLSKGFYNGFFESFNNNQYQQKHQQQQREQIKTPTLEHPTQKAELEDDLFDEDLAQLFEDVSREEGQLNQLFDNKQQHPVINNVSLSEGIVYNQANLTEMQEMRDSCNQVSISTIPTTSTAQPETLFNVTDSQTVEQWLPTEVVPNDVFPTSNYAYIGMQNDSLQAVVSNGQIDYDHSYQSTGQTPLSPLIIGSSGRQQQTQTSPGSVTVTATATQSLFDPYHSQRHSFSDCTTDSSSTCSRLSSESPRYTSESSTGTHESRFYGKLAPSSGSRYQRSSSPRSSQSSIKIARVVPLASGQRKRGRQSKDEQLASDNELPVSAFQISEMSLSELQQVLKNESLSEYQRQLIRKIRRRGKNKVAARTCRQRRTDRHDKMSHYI

14-3-3 protein gamma = target: T2, 14-3-3 protein gamma (Homo sapiens, UniProt P61981); assay: modulators of 14-3-3 gamma client binding – dose response (AID 711); assay type: functional
T2 sequence (P61981 whole entry): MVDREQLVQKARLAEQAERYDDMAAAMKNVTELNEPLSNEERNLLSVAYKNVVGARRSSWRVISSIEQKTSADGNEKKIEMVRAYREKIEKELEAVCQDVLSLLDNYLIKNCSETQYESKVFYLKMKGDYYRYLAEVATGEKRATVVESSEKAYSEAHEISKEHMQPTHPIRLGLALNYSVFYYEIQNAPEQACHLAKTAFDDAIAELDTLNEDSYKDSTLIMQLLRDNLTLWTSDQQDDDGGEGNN

[3] = target: NAD-dependent protein deacylase sirtuin-5, mitochondrial (Homo sapiens, UniProt Q9NXA8); assay: sirtuin-5 deacylation blockers, concentration series – biochemical, fluorescence imaging, cherry-pick, set 5, dose response (AID 720591);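 also: desuccinylation of succinyl peptide AMC substrate read as fluorescence after trypsin release; potency of inhibitors that lower fluorescence and may act on trypsin instead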
Chain of NAD-dependent protein deacylase sirtuin-5, mitochondrial (Q9NXA8 whole entry): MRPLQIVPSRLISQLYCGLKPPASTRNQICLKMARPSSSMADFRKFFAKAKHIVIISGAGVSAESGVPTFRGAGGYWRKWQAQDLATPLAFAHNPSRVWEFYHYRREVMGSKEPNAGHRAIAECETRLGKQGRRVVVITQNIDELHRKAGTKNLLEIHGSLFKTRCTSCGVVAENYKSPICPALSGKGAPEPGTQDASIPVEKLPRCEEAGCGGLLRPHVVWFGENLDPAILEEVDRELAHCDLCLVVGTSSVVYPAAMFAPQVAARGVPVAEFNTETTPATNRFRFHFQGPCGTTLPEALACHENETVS

[4] = target: T3, Heat shock factor protein 1 (Mus musculus, UniProt P38532); assay: decrease of HSF1-responsive luciferase luminescence – cell-based, NIH3T3, dose retest, confirmation (AID 2382); assay type: functional;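 also: NIH3T3 fibroblasts with HSF1-driven luciferase reporter stressed by proteasome inhibitor MG132; luminescence from HSF1-driven luciferase expression after 8 hours of MG132 stress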
T3 sequence (P38532 whole entry): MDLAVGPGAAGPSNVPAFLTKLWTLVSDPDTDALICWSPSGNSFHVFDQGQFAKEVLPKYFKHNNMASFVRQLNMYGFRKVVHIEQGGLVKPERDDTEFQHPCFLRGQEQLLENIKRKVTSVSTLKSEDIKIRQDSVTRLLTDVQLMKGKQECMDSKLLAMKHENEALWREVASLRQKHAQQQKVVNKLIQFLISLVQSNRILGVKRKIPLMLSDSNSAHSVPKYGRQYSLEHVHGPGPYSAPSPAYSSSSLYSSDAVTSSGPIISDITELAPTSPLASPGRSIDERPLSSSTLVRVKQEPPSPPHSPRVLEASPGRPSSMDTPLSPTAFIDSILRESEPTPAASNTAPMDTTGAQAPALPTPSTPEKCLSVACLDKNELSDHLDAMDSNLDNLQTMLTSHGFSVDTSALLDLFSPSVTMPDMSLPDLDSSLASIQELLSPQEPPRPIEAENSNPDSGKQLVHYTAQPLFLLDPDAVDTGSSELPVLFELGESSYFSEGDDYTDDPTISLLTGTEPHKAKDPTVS

[5] = cytotoxicity toward HT-29 cells – cell-based, CellTiter-Glo luminescence, IC50, dose response (AID 1117330); assay type: functional
[6] = CellTiter-Glo luminescence survival assay, SW480 colon tumor line, concentration-response curve, half-maximal inhibitory concentration (AID 1117338); assay type: functional
[7] = cytotoxicity toward HCT116 cells – cell-based, CellTiter-Glo luminescence, IC50, dose response (AID 1117332); assay type: functional; conditions: HCT-116
[8] = HCT116 cell viability decrease, GSK3B pretreatment – CellTiter-Glo, IC50, dose response (AID 1117339); assay type: functional; conditions: HCT-116
[9] = SNU-C1 cell viability reduction, dose response, CellTiter-Glo luminescence (AID 1117323); assay type: functional, cell-based
[10] = Reduced DLD-1 viability, concentration-response, CellTiter-Glo luminescence (AID 1117352); assay type: functional
[11] = RKO cell viability reduction, dose response, CellTiter-Glo luminescence (AID 1117322); assay type: functional
[12] = cytotoxicity toward Colo320 cells – cell-based, CellTiter-Glo luminescence, IC50, dose response (AID 1117334); assay type: functional; conditions: COLO 320
[13] = YAP1 overexpression rescue of CTGF inhibition – DLD1 cells, RT-qPCR, cherry-pick, mechanism study for YAP1 pathway inhibitor project, dose response (AID 1053127); assay type: functional, cell-based; conditions: DLD-1
Cryptococcus neoformans = assay: PubChem AID 686997; assay type: functional, organism-based
[14] = viability loss in HepG2 hepatoma cells – cell-based, ATP luminescence, dry powder, set 2, cytotoxicity control, dose response (AID 743129); assay type: functional
[15] = ATP-based viability loss in HepG2 cells – cell-based, CellTiter-Glo luminescence, dry powder, set 3, cytotoxicity control, dose response (AID 720594); assay type: functional
[16] = ATP-based viability loss in HeLa cells – cell-based, CellTiter-Glo luminescence, dry powder, set 2, cytotoxicity control, dose response (AID 720593); assay type: functional
[17] = ATP-based viability loss in HEK293T cells – cell-based, CellTiter-Glo luminescence, dry powder, set 2, cytotoxicity control, dose response (AID 720595); assay type: functional; conditions: HEK293
[18] = target: T4, Oxysterols receptor LXR-beta (Homo sapiens, UniProt P55055); assay: LXR agonists, Gal4 luciferase reporter, dose response, counter-screen for ssDAF-12 agonist project, cell-based, luminescence, HEK293, S. stercoralis campaign (AID 720737); assay type: functional; conditions: read-out: IC50 (the source's name)
T4 sequence (P55055 whole entry): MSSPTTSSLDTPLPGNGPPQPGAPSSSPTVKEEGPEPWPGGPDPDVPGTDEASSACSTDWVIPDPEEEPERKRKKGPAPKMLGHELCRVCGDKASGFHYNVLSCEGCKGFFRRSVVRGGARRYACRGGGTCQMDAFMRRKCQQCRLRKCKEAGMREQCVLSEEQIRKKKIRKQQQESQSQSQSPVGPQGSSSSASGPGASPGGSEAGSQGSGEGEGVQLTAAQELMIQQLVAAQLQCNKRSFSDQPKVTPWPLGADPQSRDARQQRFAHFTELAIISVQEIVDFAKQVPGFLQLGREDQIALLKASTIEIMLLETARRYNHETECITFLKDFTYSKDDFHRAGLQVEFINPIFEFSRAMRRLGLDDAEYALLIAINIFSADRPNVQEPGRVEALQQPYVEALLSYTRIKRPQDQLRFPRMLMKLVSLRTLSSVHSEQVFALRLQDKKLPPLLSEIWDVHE

[19] = Luminescence-based cell-based high throughput dose response assay to identify activators of the DAF-12 from the parasite S. stercoralis (ssDAF-12).; assay type: functional
[20] = TB: CFU replicating Measured in Microorganism System Using Imaging - 7108-05_Inhibitor_Dose_DryPowder_Activity_Set2.; assay type: functional
[21] = target: T5, Rac GTPase-activating protein 1 (Homo sapiens, UniProt Q9H0H5); assay: blockers of MgcRacGAP-driven Rac1 GTP hydrolysis – biochemical, ADP Hunter fluorescence, primary and confirmatory, confirmation (AID 624330); assay type: functional
T5 sequence (Q9H0H5 whole entry): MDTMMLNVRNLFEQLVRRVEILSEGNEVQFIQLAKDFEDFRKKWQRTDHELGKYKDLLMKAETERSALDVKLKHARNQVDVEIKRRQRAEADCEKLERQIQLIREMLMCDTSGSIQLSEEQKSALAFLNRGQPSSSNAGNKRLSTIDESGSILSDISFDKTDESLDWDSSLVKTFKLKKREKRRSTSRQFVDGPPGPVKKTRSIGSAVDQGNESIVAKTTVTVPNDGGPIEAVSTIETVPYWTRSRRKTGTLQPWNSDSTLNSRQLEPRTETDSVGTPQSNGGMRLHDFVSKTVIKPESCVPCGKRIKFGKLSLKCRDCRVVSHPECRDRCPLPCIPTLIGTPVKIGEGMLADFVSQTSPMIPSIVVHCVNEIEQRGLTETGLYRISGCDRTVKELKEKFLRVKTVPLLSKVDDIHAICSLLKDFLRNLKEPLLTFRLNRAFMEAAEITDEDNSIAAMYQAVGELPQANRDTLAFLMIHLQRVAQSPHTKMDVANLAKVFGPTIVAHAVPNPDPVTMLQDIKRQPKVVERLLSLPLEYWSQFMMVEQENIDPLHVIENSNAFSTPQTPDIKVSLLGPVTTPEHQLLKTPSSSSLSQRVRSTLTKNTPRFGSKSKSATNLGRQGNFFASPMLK

[22] = viability loss in HeLa cells – cytotoxicity control for MgcRacGAP inhibitor project, dose response (AID 624300); assay type: functional
[23] = target: T6, Sentrin-specific protease 1 (Homo sapiens, UniProt Q9P0U3); assay: Dose response confirmation of small molecule inhibitors of the catalytic domain of the SUMO protease, SENP1 in a FRET assay.; assay type: functional; conditions: read-out: IC50_Mean
T6 sequence (Q9P0U3 whole entry, the tested form may be a part): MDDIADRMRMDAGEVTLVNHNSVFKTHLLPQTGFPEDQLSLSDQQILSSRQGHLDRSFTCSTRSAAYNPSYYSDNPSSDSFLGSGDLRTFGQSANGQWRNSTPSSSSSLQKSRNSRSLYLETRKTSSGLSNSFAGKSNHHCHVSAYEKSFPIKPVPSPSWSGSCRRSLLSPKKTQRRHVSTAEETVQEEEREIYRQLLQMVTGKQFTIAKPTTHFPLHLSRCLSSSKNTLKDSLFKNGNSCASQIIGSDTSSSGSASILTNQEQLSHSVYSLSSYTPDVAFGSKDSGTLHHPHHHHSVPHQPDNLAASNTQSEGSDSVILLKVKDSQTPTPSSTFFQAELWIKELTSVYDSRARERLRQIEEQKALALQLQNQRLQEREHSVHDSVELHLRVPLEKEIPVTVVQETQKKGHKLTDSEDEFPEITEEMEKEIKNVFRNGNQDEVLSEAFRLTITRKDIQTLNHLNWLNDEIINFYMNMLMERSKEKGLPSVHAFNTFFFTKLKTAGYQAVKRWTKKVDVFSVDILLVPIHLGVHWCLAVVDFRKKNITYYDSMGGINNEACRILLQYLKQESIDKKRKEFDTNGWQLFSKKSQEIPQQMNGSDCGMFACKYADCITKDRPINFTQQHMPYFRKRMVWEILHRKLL

[24] = target: Dual specificity tyrosine-phosphorylation-regulated kinase 1A (Rattus norvegicus, UniProt Q63470); assay type: biochemical, Homo sapiens
[25] = target: T7, DNA repair protein RAD52 homolog (Homo sapiens, UniProt P43351); assay type: functional, biochemical
T7 sequence (P43351 whole entry): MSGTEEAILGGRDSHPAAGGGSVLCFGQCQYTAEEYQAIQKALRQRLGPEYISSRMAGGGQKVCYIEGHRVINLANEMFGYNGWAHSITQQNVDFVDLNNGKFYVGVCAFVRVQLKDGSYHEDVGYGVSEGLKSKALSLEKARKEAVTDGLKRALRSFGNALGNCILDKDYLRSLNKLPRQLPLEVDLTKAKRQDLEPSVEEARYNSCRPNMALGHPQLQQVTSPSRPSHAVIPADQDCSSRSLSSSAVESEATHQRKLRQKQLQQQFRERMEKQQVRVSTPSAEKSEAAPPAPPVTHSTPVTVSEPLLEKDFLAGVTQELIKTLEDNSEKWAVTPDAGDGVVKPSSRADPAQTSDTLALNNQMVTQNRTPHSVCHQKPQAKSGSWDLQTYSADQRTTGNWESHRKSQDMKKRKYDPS

Transthyretin = Transthyretin (Homo sapiens, UniProt P02766); assay: Luminescence-based cell-based high throughput dose response assay to identify activators of Transthyretin (TTR) transcription.; assay type: functional
[26] = target: T6, Sentrin-specific protease 1; assay: SENP1 catalytic domain blockers, concentration series – biochemical, kinetic FRET, dose response (AID 651697); assay type: functional; conditions: read-out: IC50_Mean

Chain of FAD-linked sulfhydryl oxidase ALR (P55789 whole entry): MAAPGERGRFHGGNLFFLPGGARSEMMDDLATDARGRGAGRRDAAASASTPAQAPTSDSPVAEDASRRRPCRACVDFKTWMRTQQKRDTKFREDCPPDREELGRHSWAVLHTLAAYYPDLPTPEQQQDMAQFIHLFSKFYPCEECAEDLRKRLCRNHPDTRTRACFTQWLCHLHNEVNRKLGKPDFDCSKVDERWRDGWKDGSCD

With `NC(=O)c1cc(N)ccc1N1CCCC1` the AC50 [1] was 4.01 µM (active), the IC50 [2] was 12.9 µM (active) and the IC50 (Protein skinhead-1) was > 100 µM (inactive). The IC50 (14-3-3 protein gamma) was 18.1 µM (active).
In the case of `O=C(Cn1nc(-c2ccc(Cl)cc2)ccc1=O)NCC1CCCO1` (stereo not given), the AC50 [3] is reported as > 30 µM (inactive) and the EC50 [4] is reported as > 195 µM (not active).
In the case of `CCCCCCCCCCCCCCCCCC[N+](C)(C)CCC[Si](OC)(OC)OC`, the IC50 [5] is reported as > 20 µM (inactive), the IC50 [6] is reported as > 20 µM (inactive) and the IC50 [7] is reported as > 20 µM (inactive). For the same compound, the IC50 [8] was > 20 µM (inactive), the IC50 [9] was > 20 µM (inactive) and the IC50 [10] was > 20 µM (inactive). The IC50 [11] was > 20 µM (inactive) and the IC50 [12] was > 20 µM (inactive).
In the case of `C[C@@H]1CN([C@@H](C)CO)C(=O)CCCn2nncc2CO[C@@H]1CN(C)C(=O)c1cc(-c2ccccc2)on1`, the AC50 [13] is reported as > 26 µM (inactive).
For `COC(=O)C1=C(C)N(Cc2ccc(F)cc2)C(=S)NC1c1cccc(F)c1` (stereo not given), the AC50 (Cryptococcus neoformans) was 36.7 µM (active) and the AC50 [14] was > 52 µM (inactive).
In the case of `CCn1nc(-c2cccnc2)nc2c(=O)n(C)c(=O)nc1-2`, the AC50 [15] is reported as 3.24 µM (active), the AC50 [16] is reported as 4.34 µM (active) and the AC50 [17] is reported as 16.4 µM (active).
With `COC(=O)[C@]12C=CCN1[C@H](c1ccc(OC)c(OC)c1)c1c(c3ccccc3n1S(=O)(=O)c1ccc(C)cc1)C2` the EC50 [18] was > 67.5 µM (inactive) and the IC50 [19] was > 67.5 µM (inactive).
With `Cn1c(NC(=O)c2ccccc2)nc2c3cccnc3ccc21` the AbsAC90 [20] was 141.12 µM.
In the case of `CN(C)CCNc1ccc(CO)c2oc3ccc(O)cc3c(=O)c12`, the IC50 [21] is reported as 128 µM (active), the CC50 [22] is reported as 50.8 µM (active) and the IC50 [23] is reported as 21.6 µM (inactive). For the same compound, the AC50 [24] was 8.03 µM (active), the AC50 [25] was 2.51 µM (active) and the EC50 (Transthyretin) was > 167 µM (inactive). The IC50 [26] was 14.1 µM (active).
